In the NIST ThermoML archive (doi:10.1021/acs.jced.8b00537):

Experiment: xn = mol fraction of the nth substance listed
Details: 100 kPa, Liquid; for viscosity: Capillary tube (Ostwald / Ubbelohde) method; for speed of sound: Frequency=3 MHz, Single path-length method; for mass density: Vibrating tube method

CC[S+](CC)CC.O=S(=O)([N-]S(=O)(=O)C(F)(F)F)C(F)(F)F [triethylsulfonium bis((trifluoromethyl)sulfonyl)imide] + CCCO
Details | mass density, 333.15 K [kg/m3] | mass density, 338.15 K [kg/m3] | mass density, 343.15 K [kg/m3] | speed of sound, 333.15 K [m/s] | speed of sound, 338.15 K [m/s] | speed of sound, 343.15 K [m/s] | viscosity, 333.15 K [mPa·s] | viscosity, 338.15 K [mPa·s] | viscosity, 343.15 K [mPa·s]
x1 = 0.04926 | 875 | 870 | 866 | 1083.4 | 1068.2 | 1052.9 | – | 1.044 | 0.953
x1 = 0.1003 | 960 | 955 | 951 | 1081.1 | 1067.1 | 1053.3 | – | 1.352 | 1.232
x1 = 0.1993 | 1082 | 1078 | 1073 | 1091.5 | 1078.7 | 1066.2 | – | 1.95 | 1.778
x1 = 0.3008 | 1170 | 1166 | 1161 | 1105.2 | 1093.3 | 1081.5 | – | 2.563 | 2.339
x1 = 0.3991 | 1234 | 1229 | 1224 | 1118 | 1106.6 | 1095.4 | – | 3.422 | 3.123
x1 = 0.5023 | 1285 | 1281 | 1276 | 1130.5 | 1119.3 | 1108.3 | – | 3.941 | 3.594
x1 = 0.5987 | 1324 | 1319 | 1315 | 1139.1 | 1128.3 | 1117.8 | – | 4.956 | 4.507
x1 = 0.6987 | 1357 | 1352 | 1347 | 1147.5 | 1137 | 1126.8 | – | 6.007 | 5.444
x1 = 0.7947 | 1383 | 1378 | 1373 | 1154.3 | 1144 | 1134 | 8.024 | 7.206 | 6.506
x1 = 0.903 | 1407 | 1403 | 1398 | 1161 | 1150.8 | 1141 | 9.653 | 8.628 | 7.766
x1 = 1 | 1427 | 1422 | 1417 | 1175.9 | 1166.8 | 1157.6 | 10.99 | 9.726 | 8.659
